Among the data in ChEMBL document CHEMBL3046677, “Diastereoselective synthesis of the model insect antifeedants related to azadiradione and epoxyazadiradione based on intramolecular insertion of -aryl--diazoketones” (1998) are AFI values, retold here.

One assay relates to Spodoptera frugiperda. Description: Antifeedant activity against Spodoptera frugiperda (fall armyworm) assessed as antifeedant index at 100 ppm. The class given is functional.
The test system of the next assay is Spodoptera littoralis. Put plainly: Antifeedant activity against Spodoptera littoralis assessed as antifeedant index at 100 ppm. It counts as functional.

SMILES strings stand for the structures.

In the case of `C[C@@H]1CCC[C@@]2(C)[C@H](c3ccoc3)C(=O)[C@H]3O[C@]132` (racemic), the AFI in the assay on Spodoptera frugiperda turned out to be 29%. The same measure, in the same setting: next, `O=C1[C@H]2O[C@]23CCCC[C@H]3[C@@H]1c1ccsc1` (racemic): 36%. Still for that read-out and setting: in the case of `O=C1[C@H]2O[C@]23CCCC[C@H]3[C@@H]1c1ccccc1` (racemic) it was -12%. `O=C1C=C2CCCC[C@H]2[C@@H]1c1ccccc1` (racemic): in the assay on Spodoptera frugiperda, the AFI came out at 40%. Turning to `O=C1C=C2CCCC[C@H]2[C@@H]1c1ccsc1` (racemic), in the assay on Spodoptera frugiperda, the AFI was determined as 1%.

Turning to `O=C1C=C2CCCC[C@H]2[C@@H]1c1ccoc1` (racemic), the AFI in the assay on Spodoptera frugiperda stood at 42%.

`CC1(C)CCC[C@]2(C)C1=CC(=O)[C@H]2c1ccoc1` (racemic): in the assay with Spodoptera littoralis, the AFI came to 16%. Turning to `CC1(C)CCC[C@@]2(C)[C@H](c3ccoc3)C(=O)[C@H]3O[C@@]312` (racemic), the AFI in the assay on Spodoptera littoralis is recorded as 28%.

Turning to `CC1(C)CCC[C@@]2(C)[C@H](c3ccoc3)C(=O)[C@H]3O[C@@]312` (stereo in doubt; (+)), in the assay on Spodoptera littoralis, the AFI is recorded as 55%. For the compound `CC1(C)CCC[C@@]2(C)[C@H](c3ccoc3)C(=O)[C@H]3O[C@@]312` (stereo in doubt; (-)), in the assay on Spodoptera littoralis, the AFI is given as 32%. On the same count and under the same terms, in the case of `CC(=O)O[C@@H]1C[C@H]2C(C)(C)C(=O)C=C[C@]2(C)[C@H]2CC[C@]3(C)C(=CC(=O)[C@H]3c3ccoc3)[C@@]21C` [AZADIRADIONE] it was 1%. As for `CC(=O)O[C@@H]1C[C@H]2C(C)(C)C(=O)C=C[C@]2(C)[C@H]2CC[C@@]3(C)[C@H](c4ccoc4)C(=O)[C@H]4O[C@]43[C@@]21C` [EPOXYAZADIRADIONE], the AFI in the assay on Spodoptera littoralis is 22%.
